Measurements taken from patent publication US6855348B2, “Insecticidal composition derived from plants” (priority 2000, dated 2005).
Like-named read-outs stand apart in the source and are kept apart here.

Legend:
[1] = system: Dermatophagoides farinae
Experimental: (§1) American house dust mite (Dermatophagoides farinae) and European house dust mite (Dermatophagoide pteronyssinus) were maintained at 75±5% RH (relative humidity) at 25±1° C., and were provided a feed mixture of fish meal and multi-vitamins in a ratio of 1 to 1 on a 12.5×10.5×5 cm container.
(§2) The starting concentration is important for the primary screening of bioactive compounds from plant extracts and oils. […] 1 mg of the methanol extracts or oils were suspended with 40 μl of methanol and were transferred to a colorless microtube (2 ml). The microtube was vertically shaken several times to disperse the contents to the wall and cap of the microtube and it was placed in a freeze dryer for 1 hour in order to volatilize the solvent. Twenty-five mites were placed on the prepared microtube, and all treatment groups were transferred to an incubator kept at […]. Active mites only were selected with a fine brush under a microscope. Mortalities were determined with a microscope at 24 hours and 48 hours after treatment. […] All tests were replicated four or more times. The percentage mortality was determined and transformed to arcsine square-root values for analysis of variance (ANOVA). Treatment means were compared and separated by Scheffe's test at the P=0.05 (SAS Institute, 1996). Means (±standard error) of untransformed data are reported. Controls received 40 μl of methanol.

[2] = system: Dermatophagoides pteronyssinus
Experimental: as §1, §2

[3] = system: house dust mites; type: in vivo
Experimental: All tests were replicated four or more times. […] Means (±standard error) of untransformed data are reported. Controls received 40 μl of methanol.

[4] = synergic effect test, 0.25 mg/tube of each compound, 24 hr
[5] = 0.5 mg/tube, 48 hr, listed as Allyl isothiocyanate

| SMILES | Mortality (Means ± standard error, %) ([1]; 0.125 mg/tube, 24 hr) | Mortality (Means ± standard error, %) ([1]; 0.125 mg/tube, 48 hr) | Mortality (Means ± standard error, %) ([1]; 0.2 mg/tube, 24 hr) | Mortality (Means ± standard error, %) ([1]; 0.2 mg/tube, 48 hr) | Mortality (Means ± standard error, %) ([1]; 0.25 mg/tube, 24 hr) | Mortality (Means ± standard error, %) ([1]; 0.25 mg/tube, 48 hr) | Mortality (Means ± standard error, %) ([1]; 0.3 mg/tube, 24 hr) | Mortality (Means ± standard error, %) ([1]; 0.3 mg/tube, 48 hr) | Mortality (Means ± standard error, %) ([1]; 0.4 mg/tube, 24 hr) | Mortality (Means ± standard error, %) ([1]; 0.4 mg/tube, 48 hr) | Mortality (Means ± standard error, %) ([1]; 0.5 mg/tube, 24 hr) | Mortality (Means ± standard error, %) ([1]; 0.5 mg/tube, 48 hr) | Mortality (Means ± standard error, %) ([1]; 1 mg/tube, 24 hr) | Mortality (Means ± standard error, %) ([1]; 1 mg/tube, 48 hr) | Mortality (Means ± standard error, %) ([2]; 0.125 mg/tube, 24 hr) | Mortality (Means ± standard error, %) ([2]; 0.125 mg/tube, 48 hr) | Mortality (Means ± standard error, %) ([2]; 0.2 mg/tube, 24 hr) | Mortality (Means ± standard error, %) ([2]; 0.2 mg/tube, 48 hr) | Mortality (Means ± standard error, %) ([2]; 0.25 mg/tube, 24 hr) | Mortality (Means ± standard error, %) ([2]; 0.25 mg/tube, 48 hr) | also measured |
| --- | --- | --- | --- | --- | --- | --- | --- | --- | --- | --- | --- | --- | --- | --- | --- | --- | --- | --- | --- | --- | --- |
| CCN(CC)C(=O)c1cccc(C)c1 [DEET, reference compound] | – | – | – | – | – | – | – | – | – | – | – | – | – | – | – | – | – | – | – | – | Mortality (Means ± standard error, %) [1, 4]: 96.8%; Mortality (Means ± standard error, %) [2, 4]: 16.8% |
| OC/C=C/c1ccccc1 [cinnamyl alcohol] | 1.0 ± 1.0d % | 2.0 ± 1.2c % | 7.0 ± 1.0c % | 7.0 ± 1.0c % | 10.0 ± 3.8c % | 10.0 ± 4.1c % | 39.0 ± 2.6b % | 45.0 ± 1.9b % | 58.0 ± 2.6b % | 65.0 ± 1.9ab % | 90.0% | 97.0 ± 1.9a % | 99.0 ± 1.0a % | 100a % | 1.0 ± 1.0e % | 3.0 ± 1.9d % | 6.0 ± 1.2d % | 10.0 ± 1.2c % | 15.0 ± 1.9d % | 14.0 ± 2.6c % | Mortality (Means ± standard error, %) ([2]; 0.3 mg/tube, 24 hr): 35.0 ± 2.5c %; Mortality (Means ± standard error, %) ([2]; 0.3 mg/tube, 48 hr): 40.0 ± 3.7b %; Mortality (Means ± standard error, %) ([2]; 0.4 mg/tube, 24 hr): 56.0 ± 2.8b %; Mortality (Means ± standard error, %) ([2]; 0.4 mg/tube, 48 hr): 62.0 ± 2.6b %; Mortality (Means ± standard error, %) ([2]; 0.5 mg/tube, 24 hr): 90.0%; Mortality (Means ± standard error, %) ([2]; 0.5 mg/tube, 48 hr): 97.0 ± 1.9a %; Mortality (Means ± standard error, %) ([2]; 1 mg/tube, 24 hr): 99.0 ± 1.0a %; Mortality (Means ± standard error, %) ([2]; 1 mg/tube, 48 hr): 100a % |
| CCCCOC(=O)c1ccccc1C(=O)OCCCC [dibutyl phtalate, reference compound] | – | – | – | – | – | – | – | – | – | – | – | – | – | – | – | – | – | – | – | – | Mortality (Means ± standard error, %) [1, 4]: 92.0%; Mortality (Means ± standard error, %) [2, 4]: 95.2% |
| C=CCN=C=S [allyl isothiocyanate] | 1.0 ± 1.0 e % | 0 e % | 6.0 ± 1.2 d % | 9.0% | 7.0 ± 3.0 d % | 8.0% | 22.0 ± 2.6 c % | 27.0% | 44.0 ± 2.8 b % | 46.0% | 90.0 ± 2.6 a % | 97.0% | 100 a % | 100 a % | 6.0 ± 3.5 d % | 9.0 ± 2.5 c % | 7.0 ± 1.0 cd % | 9.0 ± 1.0 c % | 9.0 ± 1.9 cd % | 10.0 ± 2.6 bc % | Mortality (Means ± standard error, %) [1, 5]: 94%; Mortality (Means ± standard error, %) ([2]; 0.3 mg/tube, 24 hr): 25.0 ± 2.5 bc %; Mortality (Means ± standard error, %) ([2]; 0.3 mg/tube, 48 hr): 32.0 ± 2.8 b %; Mortality (Means ± standard error, %) ([2]; 0.4 mg/tube, 24 hr): 33.0 ± 2.5 b %; Mortality (Means ± standard error, %) ([2]; 0.4 mg/tube, 48 hr): 42.0 ± 4.2 b %; Mortality (Means ± standard error, %) ([2]; 0.5 mg/tube, 24 hr): 92.0 ± 2.6 a %; Mortality (Means ± standard error, %) ([2]; 0.5 mg/tube, 48 hr): 94.0 ± 2.6 a %; Mortality (Means ± standard error, %) [2, 5]: 96%; Mortality (Means ± standard error, %) ([2]; 1 mg/tube, 24 hr): 100 a %; Mortality (Means ± standard error, %) ([2]; 1 mg/tube, 48 hr): 100 a %; acaricidal activity / mortality against two species of house dust mites ([3]; 1 mg/tube, 48 hours after treatment): 100%; acaricidal activity ([3]; at 0.4 mg and less): no significant acaricidal activity |
| O=C/C=C/c1ccccc1 [trans-cinnamaldehyde] | 18.0 ± 2.6d % | 23.0 ± 3.4c % | 19.0 ± 2.5cd % | 29.0 ± 1.9bc % | 21.0 ± 2.5cd % | 30.0 ± 8.7bc % | 32.0 ± 1.6bc % | 39.0 ± 2.5bc % | 41.0 ± 2.5b % | 45.0 ± 2.5b % | 94.0% | 96.0 ± 2.3a % | 99.0 a^c % | 100a % | 6.0 ± 3.5d % | 9.0 ± 2.5c % | 7.0 ± 1.0cd % | 9.0 ± 1.0c % | 9.0 ± 1.9cd % | 10.0 ± 2.6bc % | Mortality (Means ± standard error, %) ([2]; 0.3 mg/tube, 24 hr): 25.0 ± 2.5bc %; Mortality (Means ± standard error, %) ([2]; 0.3 mg/tube, 48 hr): 32.0 ± 2.8b %; Mortality (Means ± standard error, %) ([2]; 0.4 mg/tube, 24 hr): 33.0 ± 2.5b %; Mortality (Means ± standard error, %) ([2]; 0.4 mg/tube, 48 hr): 42.0 ± 4.2b %; Mortality (Means ± standard error, %) ([2]; 0.5 mg/tube, 24 hr): 84.0%; Mortality (Means ± standard error, %) ([2]; 0.5 mg/tube, 48 hr): 94.0 ± 2.6a %; Mortality (Means ± standard error, %) ([2]; 1 mg/tube, 24 hr): 100a %; Mortality (Means ± standard error, %) ([2]; 1 mg/tube, 48 hr): 100a % |
